From patent EP1144011B1, “PRODRUG COMPOUNDS AND PROCESS FOR PREPARATION THEREOF” (Coulter Pharmaceutical, Inc., priority 1998, dated 2000)
Square brackets hold non-standard residues; d marks the D form. Peptide text beside a SMILES is read from it. * marks the point of attachment. Sta = CC(C)C[C@H](N)[C@@H](O)CC(=O)O; Isovaleryl = CC(C)CC(=O)*

Legend:
Carcinoma cell trouase = test: Inhibition and re-activation of carcinoma cell trouase; assay type: biochemical; conditions: for inhibition of trouase: carcinoma cell trouase
trouase [1] = test: Compound screen: cleavage by HeLa cell anion exchange fraction pool (partially purified trouase), HPLC; assay type: biochemical, human; conditions: 2 hr at 37°C
Procedure: (§1) Test samples were incubated at 37°C for 2 hr with the three different preparations of carcinoma enzyme and with whole blood, extracted with acetonitrile, and analyzed by HPLC using fluorescence detection. With few exceptions, results for carcinoma enzyme cleavage were the same for a partially purified fraction from HeLa cells, MFC 7/6 cell homogenate, or MCF 7/6 conditioned media.
Thirty billion commercially produced HeLa Cells (human cervical carcinoma, Computer Cell Culture Center, Seneffe, Belgium) were homogenized with a sonicator and with a Dounce homogenizer in 108 mL of aqueous lysis solution. […]
A portion of the ultracentrifugation supernatant was diluted 2-fold with a 20 mM triethanolamine-HCl pH 7.2 buffer containing 0.01% (w/v) Triton X-100 and 0.02% (w/v) sodium azide (equilibration buffer). […] Its transformation into L-alanyl-L-leucyl-doxorubicin was quantified by reverse phase high performance liquid chromatography utilizing fluorescence detection of the anthracycline moiety. […]
(§2) For HPLC analysis 50 µL of sample was injected on a 4.6 x 50 mm 2µ TSK Super-ODS chromatography column at 40°C and eluted with a 3 minute linear gradient from 26% to 68% acetonitrile in aqueous 20 mM ammonium acetate pH 4.5 buffer at 2 mL/min. Detection was by fluorescence using an excitation wavelength of 235 nm and an emission wavelength of 560 nm. […]

[2] = test system: MCF 7/6 (breast carcinoma) cell homogenate; test: Compound screen: cleavage by MCF 7/6 cell homogenate, HPLC; assay type: biochemical
Procedure: Based on HPLC analysis of digestion products, activation of peptidyl-toxin to free toxin occurs via a series of enzyme catalyzed cleavage reactions. […] Initial endopeptidase cleavage occurs between the AA^3 (P1) and AA^2(P1') amino acids to yield alanyl-leucyl-doxorubicin.
as §1
MCF 7/6 cells were grown to confluence in a serum free medium containing DMEM:F12 (1:1), 50 mg/L bovine serum albumin, ITS-X, and Lipid Concentrate. 100 mL of cells were harvested by centrifugation at 4°C 10,000xg, for 20 min and decanting the supernatant. The pellet was resuspended in 2 mL phosphate buffered saline (Gibco) and centrifuged at 18,000xg for 10 min. […]
as §2

[3] = test system: MCF 7/6 (breast carcinoma) conditioned media; test: Compound screen: cleavage by MCF 7/6 conditioned media, HPLC; assay type: biochemical; conditions: 2 hr at 37°C
Procedure: as §1
MCF 7/6 cells were grown to confluence in DMEM/F12 (1:1) medium containing 10 % fetal bovine serum, 0.05% (w/v) L-glutamine, 250 IU/mL penicillin, and 100 µg/mL streptomycin. Cells were then washed twice with phosphate buffered saline and incubated 24 hr at 5% CO2, 37°C, in DMEM/F12 (1:1), 0.02% BSA, ITS-X. The conditioned media was then decanted and, using a stirred cell apparatus with a YM10 (10.000 MW cutoff) ultrafiltration membrane(Millipore), exchanged once with 10 mM HEPES buffer, pH 7.2 and concentrated twenty-fold. This solution was stored in aliquots at-20°C for use in the compound screen. […]
as §2

[4] = test system: LS-174T human colorectal carcinoma; test: Nude mouse xenograft model, LS-174T
[5] = Aggregation: filtration through Centricon filter units of different MWCO; assay type: physicochemical; conditions: 17.4 µMol/ml in distilled water, 2 hr at 1500g; for 3000 MWCO Filt.: quantitated at λ475 nm
Description: Sci., 73(6):766-770 (1984). Confalonieri, C. et al., The use of new laser particle sizer and shape analyser to detect and evaluate gelatinous microparticles suspended in reconstituted anthracycline infusion solutions, J. Pharmaceut. Biomed. Anal., 9(1):1-8 (1991). […] Each filter unit was centrifuged for 2 hr at 1500g force. […]

[6] = Acute toxicity after intravenous injection in mice; assay type: in vivo; conditions: iv bolus of 250 mg/kg (Dox-HCl eq.), three to five mice per group
[7] = test system: adriamycin-resistant colorectal carcinoma CXF280/10; test: Nude mouse xenograft model, CXF280/10; assay type: in vivo; conditions: CXF280/10 xenograft
[8] = test system: estrogen-dependent MCF-7/6 mammary tumor; test: Nude mouse xenograft model, MCF-7/6; assay type: in vivo; conditions: MCF-7/6 xenograft
[9] = Supporting toxicity studies; conditions: doses of up to 106.8 mg/kg
trouase [10] = test: Trouase cleavage of N-capped peptidyl-daunorubicin (defining characteristic); assay type: biochemical; conditions: under appropriate assay conditions
Description: Trouase is the enzyme which is thought to be critical for specific activation of prodrug at the target tissue.

[11] = subcutaneous LS174T tumors, five weekly intravenous doses of 57, 64 and 71 mg/kg, versus vehicle-treated controls

For `c1cnc2c(c1)ccc1cccnc12` [1,10-phenanthroline], which inhibition of trouase (Carcinoma cell trouase) is on record?
The inhibition of trouase was “inhibited”.

With `CCCNC(=O)[C@H]1O[C@@H]1C(=O)N[C@H](C(=O)N1CCC[C@H]1C(=O)O)[C@@H](C)CC` [CA074] as the molecule, how does the inhibition of trouase (Carcinoma cell trouase) read?
Its inhibition of trouase is “not”.

With `CC(C)C[C@H](NC(=O)[C@H]1O[C@@H]1C(=O)O)C(=O)NCCCCN=C(N)N` [E64] as the molecule, how does the inhibition of trouase (Carcinoma cell trouase) read?
The inhibition of trouase was “not”.

Which inhibition of trouase (Carcinoma cell trouase) does the source give for `O=C(O)CN(CCN(CC(=O)O)CC(=O)O)CC(=O)O` [EDTA] here?
Its inhibition of trouase is “inhibited”.

Which “extent of cleavage with the partially purified trouase preparation versus the P2 β-alanine compound” value (trouase [1]) does the source give for `COc1cccc2c1C(=O)c1c(O)c3c(c(O)c1C2=O)C[C@@](O)(C(C)=O)C[C@@H]3O[C@H]1C[C@H](NC(=O)[C@H](CC(C)C)NC(=O)[C@H](C)NC(=O)[C@H](CC(C)C)NC(=O)[C@H](C)NC(=O)CCC(=O)O)[C@H](O)[C@H](C)O1` [P2 L-alanine compound] here?
Its value is 0.6 fold.

What about the “extent (rate) of cleavage by cell homogenate versus the P2 β-alanine compound” value ([2]; 2 hr at 37°C) of the same molecule?
The value was 1.3 fold.

And the “extent of cleavage by conditioned medium versus the P2 β-alanine compound” value [3]?
Its value is “about the same”.

Which results are given for `COc1cccc2c1C(=O)c1c(O)c3c(c(O)c1C2=O)C[C@@](O)(C(=O)CO)C[C@@H]3O[C@H]1C[C@H](N)[C@H](O)[C@H](C)O1` [doxorubicin]?
Dose limiting toxicity (cardiotoxicity and myelosuppression), dose at which observed ([4]; repeated administration): ≥ 3 mg/kg; 3000 MWCO Filt. ([5]; passing through filter): 81%; 3000 MWCO Filt. ([5]; passing through filter, listed as Dox): 81%; 10000 MWCO Filt. ([5]; passing through filter): 82%; 50000 MWCO Filt. ([5]; passing through filter): 93%; 3000 MWCO Ret. ([5]; retained): 10%; 10000 MWCO Ret. ([5]; retained): 2%; 50000 MWCO Ret. ([5]; retained): 0.5%

Which inhibition of trouase (Carcinoma cell trouase) does the source give for `CO[C@@H]1[C@H](OC(=O)/C=C/C=C/C=C/C=C/C(=O)O)CC[C@]2(CO2)[C@H]1[C@@]1(C)O[C@@H]1CC=C(C)C` [fumagillin] here?
Its inhibition of trouase is “not”.

Which survival [6] does the source give for `COc1cccc2c1C(=O)c1c(O)c3c(c(O)c1C2=O)CC(O)(C(=O)CO)CC3OC1CC(NC(=O)C(CC(C)C)NC(=O)C(C)NC(=O)C(CC(C)C)NC(=O)CCNC(=O)CCCC(=O)O)C(O)C(C)O1` (stereo not drawn) [glutaryl βAlaLeuAlaLeu-Dox, Gl-β-Ala-Leu-Ala-Leu-Dox] here?
The survival was “all animals survived up to 8 days”.

For `CC(=O)N[C@@H](CC(C)C)C(=O)N[C@@H](CC(C)C)C(=O)N[C@H](C=O)CCCNC(=N)N` [leupeptin], which inhibition of trouase (Carcinoma cell trouase) is on record?
Its inhibition of trouase is “not”.

Which inhibition of trouase (Carcinoma cell trouase) does the source give for `CC(C)CC(=O)N[C@H](C(=O)N[C@H](C(=O)N[C@@H](CC(C)C)[C@@H](O)CC(=O)N[C@@H](C)C(=O)N[C@@H](CC(C)C)[C@@H](O)CC(=O)O)C(C)C)C(C)C` [pepstatin] (Isovaleryl-VV[Sta]A[Sta]-OH) here?
Its inhibition of trouase is “not”.

Which survival [6] does the source give for `COc1cccc2c1C(=O)c1c(O)c3c(c(O)c1C2=O)CC(O)(C(=O)CO)CC3OC1CC(NC(=O)C(CC(C)C)NC(=O)C(C)NC(=O)C(CC(C)C)NC(=O)CCNC(=O)CCC(=O)O)C(O)C(C)O1` (stereo not drawn) [succinyl-β-Ala-Leu-Ala-Leu-Dox] here?
The survival was “all animals survived up to 8 days”.

And the “inhibiting the growth of human tumors” value [7]?
Its value is “efficacious”.

And the “activation of peptidyl-toxin (digestion products by HPLC)” value ([2]; extracts of carcinoma cells or carcinoma cell conditioned media, two steps, at least two enzymes)?
The value was “converted to leucyl-doxorubicin”.

What about the “inhibiting the growth of human tumors” value [8] of the same molecule?
The value was “efficacious”.

And the “inhibiting the growth of human tumors” value ([4]; LS-174T xenograft)?
The value was “efficacious”.

And the “toxicity at efficacious doses” value ([4]; LS-174T xenograft model)?
Its value is “without significant toxicity”.

What about the “efficacy in inhibiting LS-174T tumor compared to doxorubicin at 3.0 mg/kg and saline” value ([4]; doses of 49, 57 and 64 mg/kg) of the same molecule?
The value was “superior efficacy”.

What about the body weight ([4]; repeat dosing, LS174T model) of the same molecule?
The body weight was “Some dose-dependent body weight loss”.

What about the safety and tolerability ([4]; repeat-dose levels and frequencies that demonstrated anti-tumor efficacy) of the same molecule?
The safety and tolerability was “safe and well-tolerated”.

What about the “Mean Day of Survival (MDS)” value [4, 11] of the same molecule?
The value was “significant, dose-dependent, replicable extension”.

And the tumor volume [4, 11]?
The tumor volume was “decreased size of the tumor”.

And the “kidney toxicity and myelosuppression” value [9]?
The value was “not observed”.

With `COc1cccc2c1C(=O)c1c(O)c3c(c(O)c1C2=O)C[C@@](O)(C(C)=O)C[C@@H]3O[C@H]1C[C@H](NC(=O)[C@H](CC(C)C)NC(=O)[C@H](C)NC(=O)[C@H](CC(C)C)NC(=O)CCNC(=O)CCC(=O)O)[C@H](O)[C@H](C)O1` [succinyl-βAlaLeuAlaLeu-Daunorubicin, Suc-β-Ala-Leu-Ala-Leu-Dnr] as the molecule, how does the cleavage by trouase (trouase [10]) read?
Its cleavage by trouase is “readily cleaves”.

With `CC[C@H](C)[C@H](NC(=O)CCNC(=O)CCC(=O)O)C(=O)N[C@@H](C)C(=O)N[C@@H](CC(C)C)C(=O)N[C@H]1C[C@H](O[C@H]2C[C@](O)(C(C)=O)Cc3c(O)c4c(c(O)c32)C(=O)c2c(OC)cccc2C4=O)O[C@@H](C)[C@H]1O` [succinyl-βAlalleAlaLeu-Daunorubicin] as the molecule, how does the “trouase activity relative to succinyl-βAlaLeuAlaLeu-Daunorubicin” value (trouase [10]) read?
Its value is “at least twenty-fold less active”.

For aminoethylbenzene-sufonate, which inhibition of trouase (Carcinoma cell trouase) is on record?
Its inhibition of trouase is “not”.

With cobalt as the molecule, how does the “concentration that re-activates EDTA inactivated trouase” value (Carcinoma cell trouase) read?
Its value is 50 to 100 µM.

For cupric cations, which “re-activation of EDTA inactivated trouase” value (Carcinoma cell trouase) is on record?
The value was “not”.

Which “concentration that re-activates EDTA inactivated trouase” value (Carcinoma cell trouase) does the source give for manganese here?
Its value is 50 to 1000 µM.

For zinc, which “re-activation of EDTA inactivated trouase” value (Carcinoma cell trouase) is on record?
The value was “not”.
